This passage reports IC50 results from ChEMBL document CHEMBL1147856, “Synthesis, determination of the absolute configuration of tonkinelin, and inhibitory action with bovine heart mitochondrial complex I” (Bioorg Med Chem, 2007).

The structures appear in SMILES notation.

The nature of this assay: Inhibition of NADH-ubiquinone oxidoreductase activity in bovine heart submitochondrial particles. Also noted: species or system Bos taurus.
For `CCCCCCCCCCCCCCCC[C@H](O)[C@@H](O)CCCCCCCCCCCCCCC1=C[C@H](C)OC1=O`, the IC50 – broadly, the concentration at which inhibition is half-maximal – amounted to 580 nM.

For `CCCCCCCCCC[C@@H](O)[C@@H]1CC[C@@H]([C@@H]2CC[C@@H]([C@H](O)CCCCCCCCCC(O)CC3=CC(C)OC3=O)O2)O1` (stereo not given in full) [BULLATACIN], it took 0.83 nM to reach half-maximal inhibition (IC50).

Regarding `CCCCCCCCCCCC[C@H](O)[C@@H]1CC[C@H]([C@H](O)CCCCCCCCCCCCC2=C[C@H](C)OC2=O)O1` [CIS-SOLAMIN], half-maximal inhibition (IC50) required 2.6 nM. With `CCCCCCCCCCCC[C@H](O)[C@@H](O)CC[C@@H](O)[C@H](O)CCCCCCCCCCCCC1=C[C@H](C)OC1=O` [DIHYDROXY-COHIBIN A], the midpoint of inhibition, the IC50, lay at 20 nM. Under `CCCCCCCCCCCCCCCC[C@@H](O)[C@H](O)CCCCCCCCCCCCCCC1=C[C@H](C)OC1=O` [TONKINELIN] stands 690 nM.
